The test system of this experiment is BDF1 mice, intracerebral L1210 leukemia, survival T/C. Nature of the experiment: NCI In Vivo Anticancer Drug Screen. Data for tumor model L1210 Leukemia (intracerebral) in B6D2F1 (BDF1) mice. Conditions: endpoint: mean survival time, higher = longer survival. The method, then: The antitumor activity of compounds was measured in mice bearing transplantable tumors. Survival or tumor size were measured and the results are expressed as the measurement made in the treated group (T) divided by the measurement made in the vehicle treated control group (C). The tumor model used in this assay is L1210 Leukemia (intracerebral) in B6D2F1 (BDF1) mice

Setting [1] is: dose: 3.0 mg/kg/injection, schedule: Q01DX001 (ip), vehicle: carboxymethylcellulose (CMC).
Where [2] appears, read: dose: 5.0 mg/kg/injection, schedule: Q01DX001 (ip), vehicle: carboxymethylcellulose (CMC).
Setting [3] is: dose: 8.0 mg/kg/injection, schedule: Q01DX001 (ip), vehicle: carboxymethylcellulose (CMC).
Where [4] appears, read: dose: 12.0 mg/kg/injection, schedule: Q01DX001 (ip), vehicle: carboxymethylcellulose (CMC).
Where [5] appears, read: dose: 18.0 mg/kg/injection, schedule: Q01DX001 (ip), vehicle: carboxymethylcellulose (CMC).

Values joined by “and” are separate entries in the source; they are usually repeats but may differ in a detail not shown here. Identical values can stand only once. Inconclusive results and toxic doses are left out.

Take `CC(=O)OC1CCC(NC(=O)N(CCCl)N=O)CC1` (stereo not given): the T/C runs as follows: (dose: 24.0 mg/kg/injection, schedule: Q01DX001 (ip), vehicle: other) 364 % of control; (dose: 36.0 mg/kg/injection, schedule: Q01DX001 (ip), vehicle: other) 500 % of control; (dose: 54.0 mg/kg/injection, schedule: Q01DX001 (ip), vehicle: other) 423 % of control.
In the case of `COCCOC1=C(N2CC2)C(=O)C(OCCOC)=C(N2CC2)C1=O`, the T/C (dose: 0.25 mg/kg/injection, schedule: Q01DX009 (ip), vehicle: saline) is 98 % of control and 100 % of control; the T/C (dose: 1.0 mg/kg/injection, schedule: Q01DX009 (ip), vehicle: saline) was 105 % of control and 109 % of control; the T/C (dose: 2.0 mg/kg/injection, schedule: Q01DX009 (ip), vehicle: saline) was 104 % of control and 112 % of control and 114 % of control.
With `O=c1cn[nH]c(=O)[nH]1`, the T/C runs as follows: (dose: 440.0 mg/kg/injection, schedule: Q01DX001 (ip), vehicle: carboxymethylcellulose (CMC)) 102 % of control; (dose: 670.0 mg/kg/injection, schedule: Q01DX001 (ip), vehicle: carboxymethylcellulose (CMC)) 101 % of control; (dose: 1000.0 mg/kg/injection, schedule: Q01DX001 (ip), vehicle: carboxymethylcellulose (CMC)) 101 % of control.
In the case of `O=NN(CCCl)C(=O)NC1CCSCC1`, the T/C under setting [1] is 114 % of control; the T/C under setting [2] is 152 % of control and 154 % of control; the T/C (dose: 6.0 mg/kg/injection, schedule: Q01DX001 (ip), vehicle: carboxymethylcellulose (CMC)) is 161 % of control; the T/C under setting [3] is 203 % of control and 208 % of control; the T/C (dose: 9.0 mg/kg/injection, schedule: Q01DX001 (ip), vehicle: carboxymethylcellulose (CMC)) was 217 % of control; the T/C under setting [4] was 245 % of control and 316 % of control. Further, the T/C (dose: 14.0 mg/kg/injection, schedule: Q01DX001 (ip), vehicle: carboxymethylcellulose (CMC)) was 286 % of control; the T/C under setting [5] was 230 % of control; the T/C (dose: 21.0 mg/kg/injection, schedule: Q01DX001 (ip), vehicle: carboxymethylcellulose (CMC)) is 155 % of control; the T/C (dose: 27.0 mg/kg/injection, schedule: Q01DX001 (ip), vehicle: carboxymethylcellulose (CMC)) is 94 % of control; the T/C (dose: 32.0 mg/kg/injection, schedule: Q01DX001 (ip), vehicle: carboxymethylcellulose (CMC)) is 93 % of control.
For `COc1cc(NS(C)(=O)=O)ccc1Nc1c2ccccc2nc2ccccc12`, the T/C by setting is: (dose: 0.5 mg/kg/injection, schedule: Q01DX009 (ip), vehicle: other) 98 % of control; (dose: 0.75 mg/kg/injection, schedule: Q01DX009 (ip), vehicle: saline) 100 % of control; (dose: 0.75 mg/kg/injection, schedule: Q01DX009 (sc), vehicle: saline) 101 % of control; (dose: 1.0 mg/kg/injection, schedule: Q01DX009 (ip), vehicle: other) 92 % of control; (dose: 1.25 mg/kg/injection, schedule: Q01DX009 (ip), vehicle: saline) 97 % of control; (dose: 1.25 mg/kg/injection, schedule: Q01DX009 (sc), vehicle: saline) 94 % of control. Moreover, the T/C was 100 % of control (dose: 1.5 mg/kg/injection, schedule: Q01DX009 (ip), vehicle: saline); 93 % of control (dose: 1.5 mg/kg/injection, schedule: Q01DX009 (sc), vehicle: saline); 92 % of control (dose: 1.8 mg/kg/injection, schedule: Q01DX009 (ip), vehicle: water); 105 % of control (dose: 2.0 mg/kg/injection, schedule: Q01DX009 (ip), vehicle: other); 108 % of control and 97 % of control (dose: 2.5 mg/kg/injection, schedule: Q01DX009 (ip), vehicle: saline); 98 % of control and 95 % of control (dose: 2.5 mg/kg/injection, schedule: Q01DX009 (sc), vehicle: saline). For the same compound, the T/C reads like this: (dose: 3.0 mg/kg/injection, schedule: Q01DX009 (ip), vehicle: saline) 102 % of control; (dose: 3.0 mg/kg/injection, schedule: Q01DX009 (ip), vehicle: water) 88 % of control; (dose: 3.0 mg/kg/injection, schedule: Q01DX009 (sc), vehicle: saline) 92 % of control; (dose: 5.0 mg/kg/injection, schedule: Q01DX009 (ip), vehicle: saline) 121 % of control and 108 % of control; (dose: 5.0 mg/kg/injection, schedule: Q01DX009 (sc), vehicle: saline) 101 % of control and 93 % of control; (dose: 6.0 mg/kg/injection, schedule: Q01DX009 (ip), vehicle: saline) 104 % of control. Further, the T/C was 96 % of control (dose: 6.0 mg/kg/injection, schedule: Q01DX009 (sc), vehicle: saline); 111 % of control (dose: 10.0 mg/kg/injection, schedule: Q01DX009 (ip), vehicle: saline); 100 % of control and 98 % of control (dose: 10.0 mg/kg/injection, schedule: Q01DX009 (sc), vehicle: saline); 109 % of control (dose: 20.0 mg/kg/injection, schedule: Q01DX009 (sc), vehicle: saline).
Turning to `O=NN(CCCl)C(=O)Nc1cc(NC(=O)N(CCCl)N=O)cc(C(=O)O)c1`, the T/C (dose: 1.5 mg/kg/injection, schedule: Q01DX001 (ip), vehicle: carboxymethylcellulose (CMC)) is 108 % of control; the T/C under setting [1] was 106 % of control; the T/C under setting [2] was 104 % of control; the T/C under setting [3] is 104 % of control; the T/C under setting [4] was 102 % of control; the T/C under setting [5] is 110 % of control. For the same compound, the T/C (dose: 26.0 mg/kg/injection, schedule: Q01DX001 (ip), vehicle: carboxymethylcellulose (CMC)) is 106 % of control; the T/C (dose: 40.0 mg/kg/injection, schedule: Q01DX001 (ip), vehicle: carboxymethylcellulose (CMC)) was 93 % of control; the T/C (dose: 60.0 mg/kg/injection, schedule: Q01DX001 (ip), vehicle: carboxymethylcellulose (CMC)) was 87 % of control.
Consider `CCCCCCC(=O)NC1=C(N2CC2)C(=O)C(NC(=O)CCCCCC)=C(N2CC2)C1=O`, for which the T/C (dose: 20.0 mg/kg/injection, schedule: Q01DX009 (ip), vehicle: Klucel (hydroxypropylcellulose) (HPC)) is 100 % of control; the T/C (dose: 40.0 mg/kg/injection, schedule: Q01DX009 (ip), vehicle: Klucel (hydroxypropylcellulose) (HPC)) is 105 % of control; the T/C (dose: 80.0 mg/kg/injection, schedule: Q01DX009 (ip), vehicle: Klucel (hydroxypropylcellulose) (HPC)) is 120 % of control; the T/C (dose: 160.0 mg/kg/injection, schedule: Q01DX009 (ip), vehicle: Klucel (hydroxypropylcellulose) (HPC)) was 106 % of control.

The values above are taken from PubChem BioAssay AID252 (DTP/NCI, 2004).
